Holding throughout (assay): NCI anticancer screen, dose series, 48 h
The test system of assay [1] is NCI-H522.
In assay [2] the test system is EKVX.
Assay [3] concerns MDA-MB-231.
Assay [4] deals with SK-MEL-5.
For assay [5], the system named is SK-MEL-2.
The subject of assay [6] is SW-620.
Assay [7] has as its system KM12.
Assay [8] deals with RPMI-8226.
Assay [9] has as its system UACC-62.
Assay [10] has as its system HCC 2998.
Assay [11] deals with TK-10.
Assay [12] relates to SN12C.
In assay [13] the test system is SF-268.
Assay [14] deals with HOP-62.
Assay [15] has as its system NCI-H23.
Assay [16] deals with NCI-H460.
In assay [17] the test system is OVCAR-4.
The test system of assay [18] is DU-145.
The test system of assay [19] is COLO 205.
In assay [20] the test system is T47D.

The values below come from ChEMBL document CHEMBL1201862, “PubChem BioAssay data set” (2004).

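Cells were grown in 96-well plates and exposed to each compound for 48 hours at five concentrations; endpoints were interpolated linearly between bracketing concentrations, or set to the highest concentration if not reached. GI50 is the concentration that inhibits growth by half.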 Activity calls are given as the source filed them. No stated cut-off is given here; in the data, active = GI50 up to about 1.1 µM and inactive = higher. A value given as a limit tells only on which side of the number the result lay.

Turning to `COc1ccc(/C=C2\CCC(CN3CCOCC3)C2=O)cc1` (stereo not drawn), the GI50 is 0.776 µM (active) in assay [1]; 7.57 µM (inactive) in [2]; 2.08 µM (inactive) in assay [3]; 4.62 µM (inactive) in assay [4]; 3.78 µM (inactive) in assay [5]; 1.79 µM (inactive) in assay [6]. In addition, the GI50 is 5.65 µM (inactive) in [7]; 0.552 µM (active) in assay [8]; 11.8 µM (inactive) in assay [9]; 5.48 µM (inactive) in assay [10]; 3.57 µM (inactive) in [11]; 3.83 µM (inactive) in assay [12]. The GI50 is 6.76 µM (inactive) in assay [13]; 10.5 µM (inactive) in assay [14]; 5.94 µM (inactive) in assay [15]; 17.8 µM (inactive) in assay [16]; 5.96 µM (inactive) in assay [17]; 2.23 µM (inactive) in assay [18]. The GI50 in assay [19] was 2.17 µM (inactive).
`N#Cc1c(-c2ccccc2)c(/N=N/c2ccc(Cl)cc2)c(=O)n2c1[nH]c1ccccc12`: the GI50 in assay [1] was 79.4 µM (inactive); in [2], 71.4 µM (inactive); in assay [3], > 100 µM (inactive); in [4], 55.8 µM (inactive); in assay [5], > 100 µM (inactive); in [6], > 100 µM (inactive). Besides, the GI50 is 44.2 µM (inactive) in [7]; 39.9 µM (inactive) in [8]; 52.6 µM (inactive) in [10]; 23.3 µM (inactive) in [11]; > 100 µM (inactive) in assay [12]; 79.1 µM (inactive) in assay [13]. The GI50 was 27.2 µM (inactive) in assay [14]; > 100 µM (inactive) in assay [15]; 35.5 µM (inactive) in assay [16]; 15.7 µM (inactive) in assay [17]; 97.1 µM (inactive) in assay [20]; > 100 µM (inactive) in assay [19].
On to `O=C1/C(=C/c2ccc(Cl)cc2)CSc2ccccc21`, for which the GI50 in assay [3] was 19 µM (inactive); in assay [4] it was 20.6 µM (inactive); in [5], 15.7 µM (inactive); in assay [6] it was 3.71 µM (inactive); in assay [7], 10.1 µM (inactive); in [8], 2.31 µM (inactive). Besides, the GI50 is 3.34 µM (inactive) in [9]; 42.2 µM (inactive) in assay [11]; 17.2 µM (inactive) in assay [12]; 22.5 µM (inactive) in assay [13]; 20.5 µM (inactive) in assay [14]; 21.3 µM (inactive) in assay [15]. The GI50 was 28.7 µM (inactive) in assay [16]; 36.1 µM (inactive) in [17]; 38.2 µM (inactive) in [18]; 28 µM (inactive) in [20]; 25.3 µM (inactive) in assay [19].
As to `CC(C)OC(=O)C1=C2c3ncccc3C(=O)N2[C@@H](Cl)[C@@H](Cl)[C@@H]1Cl`, the GI50 is 35.6 µM (inactive) in [1]; > 100 µM (inactive) in assay [2]; > 100 µM (inactive) in assay [3]; > 100 µM (inactive) in [4]; > 100 µM (inactive) in assay [5]; 34.9 µM (inactive) in assay [6]. The GI50 was > 100 µM (inactive) in assay [7]; 29.8 µM (inactive) in [8]; > 100 µM (inactive) in assay [9]; > 100 µM (inactive) in assay [10]; > 100 µM (inactive) in assay [11]; 21.2 µM (inactive) in [12]. For the same compound, the GI50 in assay [13] was 82.2 µM (inactive); in assay [14], > 100 µM (inactive); in assay [15], > 100 µM (inactive); in [16] it was > 100 µM (inactive); in assay [17] it was > 100 µM (inactive); in [18], > 100 µM (inactive). Besides, the GI50 in assay [19] was > 100 µM (inactive).
In the case of `O=C1CCCC2=C1CC1=C(CCCC1=O)N2c1ccc(Cl)cc1`, the GI50 in assay [2], in assay [3], in [4], in assay [6], in [7] and in assay [8] was > 100 µM (inactive) in each case. In addition, the GI50 in [9], in [10], in assay [11], in assay [12], in assay [13] and in assay [14] was > 100 µM (inactive) each time. Further, the GI50 in [15], in assay [16], in assay [17], in [18] and in assay [19] was > 100 µM (inactive) each time.
As to `COc1cc(C2SCC(=O)N2c2ccccc2Cl)cc(OC)c1OC` (stereo not drawn), the GI50 in assay [1] was 65.8 µM (inactive); in assay [2], > 100 µM (inactive); in [3] it was > 100 µM (inactive); in assay [4], 92 µM (inactive); in assay [5] it was > 100 µM (inactive); in assay [6], > 100 µM (inactive). Moreover, the GI50 is 47.2 µM (inactive) in [7]; 90.2 µM (inactive) in assay [8]; > 100 µM (inactive) in [9]; > 100 µM (inactive) in assay [10]; > 100 µM (inactive) in assay [11]; > 100 µM (inactive) in [12]. The GI50 in assay [13], in assay [15], in [16], in assay [17], in assay [18] and in assay [19] was > 100 µM (inactive) in each case.
Turning to `c1ccc(/N=C(/Nc2ccccc2)N2CCCC2)cc1`, the GI50 in assay [1], in assay [2], in assay [4], in assay [5], in [6] and in [7] was > 100 µM (inactive) each time. In addition, the GI50 in assay [8], in assay [9], in [11], in [12], in [13] and in [14] was > 100 µM (inactive) throughout. The GI50 in [15], in assay [16], in assay [17], in assay [18], in assay [20] and in assay [19] was > 100 µM (inactive) each time.
For the compound `N/C(=N\c1ccc(Cl)cc1)NS(=O)(=O)c1cc(Cl)c(Oc2ccc([N+](=O)[O-])cc2Cl)c(Cl)c1`, the GI50 was > 100 µM (inactive) in [1]; 16.9 µM (inactive) in assay [2]; 16.6 µM (inactive) in assay [3]; 16.6 µM (inactive) in assay [4]; 20.5 µM (inactive) in assay [5]; 20 µM (inactive) in [6]. In addition, the GI50 in assay [7] is 17.8 µM (inactive); in [9], 12.2 µM (inactive); in assay [11], 18.2 µM (inactive); in assay [12] it was 17.5 µM (inactive); in assay [13], > 100 µM (inactive); in assay [15] it was 16.8 µM (inactive). The GI50 in [16] is 18.4 µM (inactive); in [17], 16 µM (inactive); in assay [18], 15.7 µM (inactive); in assay [20] it was 14.8 µM (inactive); in [19], 16.1 µM (inactive).
Take `C=CCn1c(=O)c(C(=O)Nc2nc(C34CC5CC(CC(C5)C3)C4)cs2)c(O)c2ccccc21`: the GI50 in assay [1] was 44 µM (inactive); in [2] it was 30.5 µM (inactive); in assay [3] it was 22 µM (inactive); in [4] it was 34.4 µM (inactive); in [6], 23.5 µM (inactive); in [7], 30.1 µM (inactive). For the same compound, the GI50 was 20.1 µM (inactive) in assay [8]; 37.5 µM (inactive) in [10]; 82.8 µM (inactive) in assay [11]; 45.5 µM (inactive) in assay [12]; > 10 µM (inactive) in assay [13]; 30.6 µM (inactive) in assay [14]. In addition, the GI50 was 34.3 µM (inactive) in assay [15]; 32.9 µM (inactive) in [16]; 39.2 µM (inactive) in assay [17]; 47.8 µM (inactive) in assay [18]; 18.1 µM (inactive) in [19].
On to `CCC(C)[C@@H](NCc1ccccc1)[C@H](OCc1ccccc1)[C@@H]1COC(C)(C)O1` (stereo partly drawn), for which the GI50 is 20.5 µM (inactive) in assay [2]; 17.1 µM (inactive) in [3]; 12.8 µM (inactive) in assay [4]; 18.2 µM (inactive) in assay [5]; 18 µM (inactive) in assay [6]; 18.8 µM (inactive) in assay [7]. In addition, the GI50 was 15.8 µM (inactive) in assay [8]; 20.6 µM (inactive) in assay [9]; 15.6 µM (inactive) in assay [11]; 22.6 µM (inactive) in assay [12]; 22.8 µM (inactive) in assay [13]; 32.2 µM (inactive) in [14]. For the same compound, the GI50 in assay [15] is 18.8 µM (inactive); in assay [17] it was 28.8 µM (inactive); in assay [18] it was 27.4 µM (inactive); in assay [19], 15.9 µM (inactive).
With `Cc1cccc(CNNC(=O)c2cc[n+]([BH2-]C#N)cc2)c1`, the GI50 was 36.4 µM (inactive) in assay [2]; 20.6 µM (inactive) in assay [3]; 17.2 µM (inactive) in [4]; 34.9 µM (inactive) in assay [5]; 34 µM (inactive) in assay [6]; 22.6 µM (inactive) in assay [7]. The GI50 in assay [8] is 24.8 µM (inactive); in [9], 62.7 µM (inactive); in [10], 22.4 µM (inactive); in assay [11], 53.7 µM (inactive); in [13] it was 26.7 µM (inactive); in assay [14], 38 µM (inactive). In addition, the GI50 was 18.6 µM (inactive) in assay [15]; 36.5 µM (inactive) in assay [16]; 42 µM (inactive) in [17]; 24.7 µM (inactive) in [18]; 16.5 µM (inactive) in [19].
